Laboratory results taken from publication PMC8232621, “Antimicrobial Activity of a Library of Thioxanthones and Their Potential as Efflux Pump Inhibitors” (Pharmaceuticals, 2021).
Where “and” joins values, the source holds several entries; their conditions need not be identical. Equal entries are not always repeated.

Tests used:
SE03 [1] = experiment: Real-time ethidium bromide accumulation assay (efflux pump inhibition); type: cell-based, Salmonella enterica serovar Typhimurium SL1344; conditions: compounds 50 µM (compound 12 at 17 µM), CCCP 25 µM, minute 60, EB 1 µg/mL
Method: (§1) The relative fluorescence index (RFI) was calculated based on the means of relative fluorescence units, and theses RFIs are depicted in Table 4.
(§2) The compounds were evaluated for their ability to inhibit the efflux of EB, an efflux pump substrate, in Salmonella enterica serovar Typhimurium SE03 and S. aureus 272123 strains, through real-time fluorimetry, monitoring the intracellular accumulation of EB, an efflux pump substrate. This was determined by the automated method using a CLARIOstar Plus plate reader (BMG Labtech, Ortenberg, Germany). Reserpine and CCCP were applied at 25 µM as positive controls, and the solvent DMSO was applied at 1% v/v. The bacterial strains were incubated in an appropriate culture media (TSB–S. aureus 272123; LB-B–SE03) at 37 °C until they reached an optical density (OD) of 0.6 at 600 nm. The culture was centrifuged at 13,000× g for 3 min, and the pellet was washed and resuspended with phosphate buffered saline (PBS, pH 7.4). The suspension was centrifuged again in the same conditions and resuspended in PBS.
(§3) Then, 50 µL of this solution were transferred into a 96-well black microtiter plate (Greiner Bio-One Hungary Kft, Mosonmagyaróvár, Fertősor, Hungary), and 50 µL of bacterial suspension (OD600 = 0.6) were added to each well. The plates were placed into the CLARIOstar plate reader, and the fluorescence was monitored at excitation and emission wavelengths of 530 nm and 600 nm, respectively, every minute for one hour on a real-time basis. From the real-time data, the activity of the compounds, namely the relative fluorescence index (RFI) of the last time point (minute 60) of the EB accumulation assay, was calculated according to the following equation:(1) RFI=RFtreated−RFuntreated/RFuntreated where RFtreated is the relative fluorescence (RF) at the last time point of EB accumulation curve in the presence of the compound, and RFuntreated is the RF at the last time point of the EB accumulation curve of the untreated control, having only the solvent (DMSO) control. The accumulation curves were designed using Microsoft Excel®. The samples were tested in triplicate, and the RFI presented comes from the average of these three values. The accumulation graphs present the mean of the RF at the last time point. The standard deviation (SD) was calculated automatically and included in the RF graphs.

E. coli SA/2 = experiment: Synergy with cefotaxime (antibiotic MIC in presence of compound); type: cell-based
From the text: (§4) The referred library of thioxanthones was initially tested for their antimicrobial activity against six bacterial strains: the Gram-negative Escherichia coli ATCC 25922, Pseudomonas aeruginosa ATCC 27853 and Salmonella enterica serovar Typhimurium SL1344 (SE03), with the acrA gene deleted, and the Gram-positive Staphylococcus aureus ATCC 29213, Enterococcus faecalis ATCC 29212 and the methicillin and ofloxacin-resistant clinical isolate S. aureus 272123. For the synergy assay, two clinically relevant isolates were used: the extended-spectrum β-lactamase (ESBL)-producing E. coli SA/2 [23] and the vancomycin-resistant E. faecalis (VRE) B3/101 [23]. The antibiotics used were cefotaxime (CTX) and vancomycin (VAN), respectively.
The combined effect of the compounds and clinically relevant antimicrobial drugs was evaluated by determining the antibiotic’s MIC in the presence of each compound. […] The antibiotic tested was serially diluted, whereas the concentration of each compound was kept fixed. […]

S. aureus 272123 [2] = experiment: Real-time ethidium bromide accumulation assay (efflux pump inhibition); type: cell-based, Staphylococcus aureus; set-up: key: RFI = (RFtreated − RFuntreated)/RFuntreated at minute 60; conditions: compounds 50 µM, reserpine 25 µM, minute 60, EB 1 µg/mL
Method: as §1, §2, §3

S. marcescens = experiment: Quorum sensing inhibition assay (pigment production); type: cell-based, Serratia marcescens AS-1; conditions: Serratia marcescens, read-out: Quorum Sensing Inhibition (mm) ± SD
Method: (§5) Concerning the QS inhibition assay, the sensor strain Chromobacterium violaceum CV026 and the AHL producer strain Sphingomonas paucimobilis Ezf 10-17 (EZF) were inoculated as parallel lines, and the AHL producers Chromobacterium violaceum wild-type 85 (wt85) and Serratia marcescens AS-1 were inoculated as a single line. The interaction between the strains and compounds 2–18 was evaluated as the reduction of pigment production, in millimeters (mm) (Table 5) with promethazine (PMZ) as a positive control.
(§6) The QS inhibitory effect of the compounds was examined on the EZF and the sensor CV026 strains, on the wt85 strain, and on S. marcescens. The method used was the parallel inoculation method, where pair combinations of the used sensor strain CV026 and the N-acyl-homoserine lactone (AHL) producing strain EZF were inoculated directly onto the LB*-A agar surface in parallel, at an approximate distance of 5 mm from each other. S. marcescens AS-1 and wt85 were inoculated as a single line. Filter paper disks (7 mm in diameter) were placed on the center of the inoculated line(s) and impregnated with 8 µL of a solution of 10 mM of the compounds. […] The agar plates were incubated at room temperature (20 °C) for 24−48 h. The QS inhibition was accessed visually, through the inhibition of pigment production. The discolored, but intact, bacterial colonies were measured with a ruler.

EZF + CV026 = experiment: Quorum sensing inhibition assay (pigment production), parallel inoculation; type: cell-based; conditions: disk with 8 µL of 10 mM solution, read-out: Quorum Sensing Inhibition (mm) ± SD
Method: as §5, §6

SE03 [3] = experiment: Antibacterial activity, broth microdilution MIC; type: cell-based, Salmonella enterica serovar Typhimurium SL1344; conditions: Salmonella enterica, read-out: Minimum Inhibitory Concentration (MIC)
From the text: as §4
(§7) The minimum inhibitory concentration (MIC) for each compound was determined by broth microdilution method in a 96-well plate according to the Clinical and Laboratory Standard Institute (CLSI) guidelines. The medium used was MHB II. The concentrations tested ranged from 100 µM to 0.195 µM and were prepared from a stock solution of 10 mM in DMSO, for S. aureus 272123 and SE03; for the other strains, the concentrations tested ranged from 64 µg/mL to 4 µg/mL and were prepared from a stock solution of 10 mg/mL in DMSO. DMSO was used in subinhibitory concentrations (1% v/v). The MIC was determined by visual inspection.

S. aureus 272123 [4] = experiment: Antibacterial activity, broth microdilution MIC; type: cell-based; conditions: Staphylococcus aureus, 272123, read-out: Minimum Inhibitory Concentration (MIC)
From the text: as §4, §7

S. aureus 272123 [5] = experiment: Inhibition of biofilm formation (crystal violet); type: cell-based, Staphylococcus aureus; conditions: Staphylococcus aureus; S. aureus 272123; compounds 100 µM (compound 12 at 50 µM); 48 h; read-out: Biofilm Inhibition (%) ± SD
Method: Efflux mechanisms are one of the factors that can lead to biofilm-mediated resistance, along with slow growth and reduced penetration due to production of extracellular polysaccharides. […] Additionally, they can also modulate QS, through an influence in the transport of QS signal molecules. Thioxanthones 2–18 were tested for their potential for inhibiting biofilm formation by S. aureus ATCC 29213 and the multi-resistant S. aureus 272123. The biofilm inhibition, presented in percentage (%), was calculated based on the mean of absorbance units. Reserpine, which has previously been described as both an efflux pump inhibitor and an inhibitor of biofilm formation in Gram-positive bacteria was used as control in both strains.
The thioxanthone derivatives were tested for their ability to decrease the formation of biofilm. The bacterial strains used were the Gram-positive S. aureus […] and S. aureus 272123. The detection of the biofilm formation was carried out using the dye crystal violet (CV; 0.1% v/v). The initial inoculum was incubated in TSB overnight, and then diluted to an OD600 of 0.1. […] This meant that compound 12 was added at 50 µM, while the rest of the compounds were added at the concentration of 100 µM. The final volume in each well was 200 µL. Reserpine was used as a positive control, as it was the same compound used in the efflux pump inhibition assay and it has shown activity in the inhibition of biofilm formation in S. aureus strains. The plates were incubated at 30 °C for 48 h, with gentle stirring (100 rpm). After this incubation period, the TSB medium was discarded, and the plates were washed with tap water to remove unattached cells. Afterwards, 200 µL of a 0.1% v/v CV solution were added to the wells and incubated for 15 min at room temperature. Then, the CV solution was removed from the wells, and the plates were washed again with tap water, and 200 µL of a 70% ethanol solution was added to the wells. The biofilm formation was determined by measuring the OD600 using a Multiscan EX ELISA plate reader (Thermo Labsystems, Cheshire, WA, USA). The anti-biofilm effect of the compounds was expressed in the percentage (%) of decrease of biofilm formation.

S. aureus ATCC 29213 = experiment: Inhibition of biofilm formation (crystal violet); type: cell-based; conditions: Staphylococcus aureus, ATCC29213, 48 h, S. aureus ATCC 29213, compounds 100 µM (compound 12 at 50 µM), read-out: Biofilm Inhibition (%) ± SD
wt85 = experiment: Quorum sensing inhibition assay (pigment production); type: cell-based, Chromobacterium violaceum wild-type 85; conditions: Chromobacterium violaceum, read-out: Quorum Sensing Inhibition (mm) ± SD
Method: as §5, §6

In the case of `N#CC(C#N)=NNc1cccc(Cl)c1` [CCCP, carbonyl cyanide 3-chlorophenylhydrazone, reference compound], the “RFI ± SD” value (SE03 [1]) is reported as 0.23 ± 0.04.
For `CO/N=C(\C(=O)N[C@@H]1C(=O)N2C(C(=O)O)=C(COC(C)=O)CS[C@H]12)c1csc(N)n1` [CTX, cefotaxime, reference compound], the “CTX MIC (antibiotic alone)” value (E. coli SA/2) was 1124 µM and 512 µg/mL.
For `CCCOc1ccc(OC)c2c(=O)c3ccccc3sc12` [Compound 4], the “RFI ± SD” value (S. aureus 272123 [2]) was 0.11 ± 0.26, the zone of inhibition at 10000 µM (S. marcescens) was 0 mm and the zone of inhibition at 10000 µM (EZF + CV026) was 0 mm. It also gave an MIC (SE03 [3]) of over 100 µM, an MIC (S. aureus 272123 [4]) of over 100 µM and an inhibition at 100 µM (S. aureus 272123 [5]) of 47.9 ± 1.08%. The “RFI ± SD” value (SE03 [1]) was −0.10 ± 0.05, the inhibition at 100 µM (S. aureus ATCC 29213) was 0.17 ± 0.83% and the zone of inhibition at 10000 µM (wt85) was 0 mm.
For `CCCOc1ccc(NCCc2nc3ccccc3[nH]2)c2c(=O)c3ccccc3sc12` [Compound 5], the “RFI ± SD” value (S. aureus 272123 [2]) was −0.13 ± 0.04, the zone of inhibition at 10000 µM (S. marcescens) was 0 mm and the zone of inhibition at 10000 µM (EZF + CV026) was 0 mm. It also gave an MIC (SE03 [3]) of over 100 µM, an MIC (S. aureus 272123 [4]) of over 100 µM and an inhibition at 100 µM (S. aureus 272123 [5]) of 0%. The “RFI ± SD” value (SE03 [1]) was −0.20 ± 0.01, the inhibition at 100 µM (S. aureus ATCC 29213) was 0.37 ± 0.47% and the zone of inhibition at 10000 µM (wt85) was 0 mm.
`CCCOc1ccc(NCCc2ccc([N+](=O)[O-])cc2)c2c(=O)c3ccccc3sc12` [Compound 6] was tested, and the “RFI ± SD” value (S. aureus 272123 [2]) was 0.09 ± 0.11, the zone of inhibition at 10000 µM (S. marcescens) was 0 mm and the zone of inhibition at 10000 µM (EZF + CV026) was 0 mm. The MIC (SE03 [3]) was over 100 µM, the MIC (S. aureus 272123 [4]) was over 100 µM and the inhibition at 100 µM (S. aureus 272123 [5]) was 0%. The “RFI ± SD” value (SE03 [1]) was −0.20 ± 0.01, the inhibition at 100 µM (S. aureus ATCC 29213) was 0% and the zone of inhibition at 10000 µM (wt85) was 0 mm.
